# Laboratory results published in publication PMC12081684, “A three-dimensional high throughput assay identifies novel antibacterial molecules with activity against intracellular Shigella” (npj Antimicrobials and Resistance, 2025).
# Where “and” joins values, the source holds several entries; their conditions need not be identical. Identical values can stand only once. Like-named read-outs stand apart in the source and are kept apart here.
# Experiments:
# [1] = tested on: intracellular S. flexneri SF_nanoluc in Caco-2 cells on Cytodex 3 beads; experiment: microbe, parasite or virus in culture; details: for Selectivity (log) Caco pIC50 vs Cytotox / Selectivity (log) Caco pIC50 vs cytox: Caco-2
# Experimental: S. flexneri SF_nanoluc was grown overnight on a 50mgL^-1 kanamycin LB plate at 37 °C. Bacteria were scraped from the plate surface and sub-cultured in warm supplemented EMEM medium for 2 h (at 37 °C and 200 rpm) and diluted to get OD around 0.3 at 625 nm. Induction was performed in 500 ml or 1000 ml siliconized spinner flasks under closed culture conditions. 200 mg autoclaved Cytodex 3 beads (GE Healthcare), rehydrated with cation-free PBS (Sigma), were washed with supplemented EMEM medium and inoculated with 1.7 million Caco-2 cells/ml in half of the desired culture volume of the medium. The spinner vessel was kept static for 4 h in a humidified atmosphere of 5% CO2 at 37 °C, allowing Caco-2 cells to bind to beads. The remaining medium was added into the vessel and stirred at 32.5 rpm. The medium was changed every 72 h, and the induction was used on day 17 to ensure Caco-2 cells were fully differentiated.
# Cell concentration induction was measured by NucleoCounter® NC-100™ (ChemoMetec Version 2.4). Cellular invasion was initiated by adding the bacterial stock into cell induction with optimal MOI, and the vessel was stationary for an hour before stirring at 22.5 rpm for 5 h in a humid atmosphere of 5% CO2 at 37 °C. After incubation, culture media was discarded by centrifugation; and a gentamicin protection assay was performed, in which cell beads were washed twice with a warm medium and EMEM containing gentamicin (100ug ml^-1) was added to the chamber of the system. The cell culture was incubated for 1 h with stirring and then washed three times with a warm medium before 25 μl of the invasive mixture was dispensed into each well. Plates were incubated for two days in a humid atmosphere of 5% CO2 at 37 °C before proceeding to develop the luminescent signal by adding 10 μl mixture of nanoluciferase substrate (Nano-Glo® Luciferase Assay System, N1130, Promega) into each well. After standing at room temperature for 30 min, luminescent signals were quantified by the Envision Reader (PerkinElmer) in focus luminescent mode. For the bacterial tracking, we used the green fluorescent protein in S. flexneri ATCC 12022GFP to monitor the invasion.
# The HTS assay was performed in 384-well black clear-bottom plates (Greiner). Screening compounds were prepared with an appropriate DMSO concentration (0.5% in cell-based assay). Every assay plate contained 16 wells of DMSO as negative controls and 16 wells of moxifloxacin at a final concentration of 20 μM as positive controls. These controls were used to monitor assay quality through determination of Z’ factor as well as normalizing the data on a per-plate basis.
# To assess the quality of the dose-response assay, 11 commercially available antimicrobials were used to evaluate the reliability of the HTS assay. The percentage of coefficient of variation (CV%) was calculated by accessing the IC50 (μM) deviation of selected positive controls. Intra-assay reproducibility was determined by comparing the IC50 that were generated in the same run of the two replicates. Inter-assay reproducibility was assessed by comparing the IC50 generated by two replicates of each day over two days. Intra-assay %CV should be <10%, while inter-assay %CV should be <15%. To validate the HTS assay configuration, a set of 10 thousand compounds was assayed in 384-well plates at a final concentration of 10 μM. Assay were run in duplicate and confirmed if needed, a validation data was assessed to analyse the pros and cons of the whole procedure.
# Following screening, all non-novel structures were removed, and the remaining compounds were subjected to a dose response (DR) assay, which was set as 3-fold serial dilution started at 100uM each compound.
# The raw data of the plate reader was imported and analysed in ActivityBase and Spotfire version 10.3.1.18 (TIBCO).
# [2] = Experimental Chromlog / ChromLogD pH7.4 and PFI; type: physicochemical; details: pH7.4, experimental
# HepG2 cells = experiment: In vitro cytotoxicity on HepG2 cells; type: cell-based; details: Homo sapiens
# Description: Upon chemical review, the 15 hit compounds were reorganized based on structure similarity into 13 clusters. Two chemicals were considered as a series, and the remaining 11 clusters were singletons (Fig. 3). […] Four of the 15 structures carried an NO2 moiety, including two hits of Series 1, one hit of Series 2, and Singleton 7. Although the antibacterial activity of nitro-containing molecules is known to be broad, nitro groups have been extensively associated with mutagenicity and genotoxicity.
# CAD solubility = type: physicochemical; details: Table 1
# [3] = tested on: intracellular S. flexneri in Caco-2 cell monolayers; experiment: Monolayer (plate-based) Caco-2 intracellular Shigella assay; type: cell-based, Shigella flexneri
# Description: The IC50 comparison between plate-based (monolayers) and bead-based assay was applied for control (Moxifloxacin) to validate and compare between two methods. The average IC50s from monolayer assays were lower than bead-based assays, but there was no significant difference (p value > 0.05, using Mann-Whitney test) between two methods (Supplementary Table 6).
# [4] = Shigella flexneri, Caco-2, read-out: Caco2 IC50 (μM), Table 1, 3-D Caco-2 beads, intracellular S. flexneri
# [5] = Shigella flexneri, Caco-2, read-out: Caco2 pIC50, Table 1 (converted), 3-D Caco-2 beads, intracellular S. flexneri
# [6] = HepG2, Supplementary table 8, read-out: HepG2 pIC50 (converted)
# [7] = HepG2, read-out: HepG2 pIC50, Table 1 (converted)
# [8] = Shigella flexneri, Caco-2, read-out: IC50 T1, 1st Batch, replicate T1
# [9] = Shigella flexneri, Caco-2, read-out: IC50 T2, 1st Batch, replicate T2
# [10] = Shigella flexneri, Caco-2, read-out: IC50 T3, 2nd Batch, replicate T3
# [11] = Shigella flexneri, Caco-2, read-out: IC50 T4, 2nd Batch, replicate T4
Compound,Selectivity (log) Caco pIC50 vs Cytotox [1],Selectivity (log) Caco pIC50 vs cytox [1],"IC50 [1, 4]","IC50 [1, 5]",Chromlog pH7.4 (Expt) [2],IC50 (HepG2 cells; [6]),IC50 (HepG2 cells; [7]),CAD sol (CAD solubility),"IC50 [1, 8]","IC50 [1, 9]","IC50 [1, 10]","IC50 [1, 11]",further results
COc1ccc2c(CC(=O)NC(c3ccc(Cl)cc3)C3CC3)coc2c1 (stereo not drawn) [Compound 13],> 0.61 log,>0.61 log,24.6 µM,24.5 µM,6.43,> 100000 nM,> 1000 nM,53 µg/mL,–,–,–,–,–
Cc1nn(-c2ccccc2)c(C)c1NC(=O)CN1C(=O)NC(C)(c2ccco2)C1=O (stereo not drawn) [Compound 14],> 0.61 log,>0.61 log,24.6 µM,24.5 µM,2.93,> 100000 nM,> 100 nM,>106 µg/mL,–,–,–,–,–
CC(=O)c1cccc(NC(=O)Nc2ccc(S(=O)(=O)Nc3cc(C)on3)cc2)c1 [Compound 15],> 0.76 log,>0.61 log,17.4 µM,17.4 µM,2.04,> 100000 nM,> 10 nM,>149 µg/mL,–,–,–,–,–
"C[C@@H](O)[C@H]1C(=O)N2C(C(=O)O)=C([C@H]3CCCO3)S[C@H]12 [Faropenem, reference compound]",–,–,–,–,–,–,–,–,1.3 µM,1.23 µM,1.43 µM,1.44 µM,–
"CNC(C)C1CCC(N)C(OC2C(N)CC(N)C(OC3OCC(C)(O)C(NC)C3O)C2O)O1 (stereo not drawn) [Gentamicin, reference compound]",–,–,–,–,–,–,–,–,1.52 µM,1.27 µM,1.17 µM,1.24 µM,–
"C[C@@H](O)[C@H]1C(=O)N2C(C(=O)O)=C(S[C@@H]3CN[C@H](C(=O)N(C)C)C3)[C@H](C)[C@H]12 [Meropenem, reference compound]",–,–,–,–,–,–,–,–,0.349 µM,0.365 µM,0.404 µM,0.399 µM,–
"COc1c(N2C[C@@H]3CCCN[C@@H]3C2)c(F)cc2c(=O)c(C(=O)O)cn(C3CC3)c12 [Moxifloxacin, reference compound]",–,–,–,–,–,–,–,–,0.0252 µM,0.0221 µM,0.0235 µM,0.0235 µM,"IC50 ([3]; Shigella flexneri, Caco-2, Average of three, read-out: IC50 (µM) Monolayers, Average): 0.0232 µM; IC50 ([3]; Shigella flexneri, Caco-2, single runs, read-out: IC50 (µM) Monolayers): 0.0236 µM; IC50 ([3]; single runs, read-out: IC50 (µM) Monolayers): 0.0234 µM and 0.0228 µM; IC50 ([1]; Shigella flexneri, Caco-2, read-out: IC50 (µM) Beads, Average, Average of three, Supplementary table 6): 0.0305 µM; IC50 ([1]; Shigella flexneri, Caco-2, read-out: IC50 (µM) Beads, single runs, Supplementary table 6): 0.0361 µM; IC50 ([1]; read-out: IC50 (µM) Beads, single runs, Supplementary table 6): 0.0327 µM and 0.0226 µM"
"COc1ccc(-c2ccn(CC[C@](C)(C(=O)NO)S(C)(=O)=O)c(=O)c2)c(F)c1 [PF5081090, reference compound]",–,–,–,–,–,–,–,–,–,–,–,–,"IC50 ([1]; read-out: IC50 T1, 1st Batch, replicate T1): 0.0957 µM; IC50 ([1]; read-out: IC50 T2, 1st Batch, replicate T2): 0.0919 µM; IC50 ([1]; read-out: IC50 T3, 2nd Batch, replicate T3): 0.0937 µM; IC50 ([1]; read-out: IC50 T4, 2nd Batch, replicate T4): 0.0938 µM"
"CN(C)[C@@H]1C(O)=C(C(N)=O)C(=O)[C@@]2(O)C(O)=C3C(=O)c4c(O)cccc4[C@@](C)(O)[C@H]3C[C@@H]12 [Tetracycline, reference compound]",–,–,–,–,–,–,–,–,1.61 µM,1.56 µM,1.19 µM,1.18 µM,–
